According to patent US20120021468A1, “PRODUCTION OF L-RIBOSE AND OTHER RARE SUGARS” (ZUCHEM, INC., priority 2008, published 2012):

Key:
[1] = system: HIV; settings: cited from earlier work
[2] = target: T1, Recombinant MDH (Apium graveolens, UniProt Q38707); test: Relative reaction rates of substrates with recombinantly expressed MDH (NADH measured spectrophotometrically); format: biochemical; settings: MDH expressed recombinantly; D-mannitol = 100%
T1 construct: An MDH gene was synthetically constructed for expression E. coli; made in house; host or cells: E. coli BL21, pTTQ18 plasmid
Procedure: (§1) Many different variables were studied to maximize the expression and activity of MDH. MDH activity was monitored with the conversion of D-mannitol to D-mannose in the presence of NAD. The conversion was monitored spectrophotometrically by measuring the increasing concentration of NADH, the cofactor product of the oxidation of mannitol to mannose. For a given experiment, lysate protein concentrations were normalized.
(§2) Substrate specificity of the recombinant MDH was also tested and compared with the published data on the natively expressed MDH. Recombinant expression of MDH in E. coli could cause subtle modifications to the tertiary structure of MDH and modify the substrate specificity. Several known substrates of the MDH were tested.[16]

[3] = target: T2, Native MDH (Apium graveolens, UniProt Q38707); settings: MDH expressed natively; D-mannitol = 100%; published data; cited from earlier work
T2 construct: compared with the published data on the natively expressed MDH; host or cells: celery (Apium graveolens), native expression

[4] = system: E. coli production strain with inactive PEP-dependent phosphotransferase system; test: Polyol conversion in shake flasks by mutagenized PTS-inactive E. coli MDH strain, HPLC; format: cell-based
Text: This can be accomplished by PCR-based genetic deletion of phosphocarrier protein ptsH, phosphotransferase system enzyme I ptsI, and the glucose specific enzyme IIA PTS component crr, but could be accomplished by other genetic manipulation including deletion of the polyol specific PTS type II genes or other genetic or biochemical manipulation known to those skilled in the art. These mutations render the production strain unable to metabolize or phosphorylatively uptake D-mannitol, galactitol, or D-sorbitol.
Flasks contained LB, ampicillin, 250 μM ZnCl2, and 40 g/L galactitol, D-mannitol, or D-sorbitol. Cells were induced with 0.5 mM IPTG after 4 hrs growth at 37° C. and the temperature was reduced to 25° C. After 6 days of incubation, D-mannose had been created from D-mannitol with 12% conversion. D-sorbitol conversion to L-gulose ceased after 7 days with a final conversion of 12%. Following 14 days of reaction, L-galactose had been produced from galactitol with 40% conversion. The final products were characterized by non-chiral HPLC in comparison to their D-counterparts. Optical rotation was obtained by polarimetry and used to verify stereochemistry. This resulting strain is further capable of converting D-arabitol to D-lyxose at 24% conversion.

[5] = system: recombinant E. coli MDH strain; test: Polyol bioconversion by the recombinant E. coli MDH strain, HPLC; format: cell-based; settings: strain with active phosphotransferase uptake system
Text: It was hypothesized that the lack of conversion was due to the phosphotransferase uptake system for D-mannitol, galactitol, and D-sorbitol, which phosphorylates these polyols upon uptake.

[6] = target: T3, Recombinant MDH (Apium graveolens, UniProt Q38707, C47S/T120I); test: Relative reaction rates of substrates with recombinantly expressed MDH (NADH measured spectrophotometrically); format: biochemical; settings: recombinant MDH
T3 construct: An MDH gene was synthetically constructed for expression E. coli; made in house; host or cells: E. coli BL21, pTTQ18 plasmid
Procedure: as §1, §2

[7] = target: T4, Apium gravelons mannitol-1-dehydrogenase (MDH) (Apium graveolens, UniProt Q38707, C47S/T120I); test: MDH activity in lysate with added divalent metal salts; format: biochemical
T4 construct: An MDH gene was synthetically constructed for expression E. coli; made in house; host or cells: E. coli BL21, pTTQ18 plasmid
Procedure: While not explicitly described in the literature, Apium gravelons mannitol-1-dehydrogenase (MDH) requires divalent metal ions, particularly Zn^2+ ions, for activity. The presence of ZnSO4 increases MDH activity. Cells expressing MDH were grown in rich media were harvested and lysed with BUGBUSTER® protein extraction reagent, Novagen, Madison, Wis. MDH activity was then tested with increasing concentrations of ZnSO4 in the presence of D-mannitol and NAD cofactor at pH 9.0. See, FIG. 11.

[8] = system: recombinant E. coli expressing MDH; test: Effect of Zn2+ on L-ribose production from ribitol; format: cell-based; settings: LB, 100 g/L ribitol, 0.5% glycerol
Procedure: The cultures are analyzed for production of L-ribose vs. time. The optimum production of L-ribose occurs between 0.15 and 1.5 mM Zn^2+ with the best conversion at 0.5 mM ZnCl2 (FIG. 14).

[9] = Thermostability of recombinant MDH in lysates; format: physicochemical; settings: after four hours of incubation at various temperatures, except at 25° C.
Procedure: The thermostability of recombinant MDH was also tested. Lysates containing MDH were incubated at various temperatures. Aliquots of MDH were removed at various times to measure MDH activity using the assay described above. See, FIG. 13.

[10] = Fermentation of ribitol to L-ribose with wild-type MDH in E. coli; format: cell-based
Procedure: Because of the successes with the expression of MDH in E. coli, additional experiments were performed to determine the feasibility of the MDH system to produce L-ribose with MDH enzyme. Initial fermentation experiments were performed in shake-flasks using rich media and varying concentrations of ribitol. With 2% ribitol (w/v), the MDH-expressing strain converted approximately 25% of the ribitol to L-ribose with 48 hrs. The goal for this strain would be to have >90% conversion within 24-48 hrs.
One goal for the fermentation would be the synthesis of 100-150 g·L^−1 of L-ribose in 24-48 hrs with >90% conversion efficiency from ribitol. Initial fermentation results with the wild-type MDH show a productivity of approximately 35 g·L^−1 in 48 hrs with 30% ribitol converted.

[11] = MDH thermal stability: incubation at 43° C. followed by kinetic assay; format: physicochemical; settings: relative to WT
[12] = pH profile of MDH oxidation activity; format: biochemical; settings: relative to maximum at pH 9.0
Procedure: as §1
The pH profile for MDH for the oxidation reactions was also tested. […] This range could be beneficial for in vitro bioconversions with enzymatic NAD cofactor recycling methods. Increasing the activity of MDH at neutral pH could improve in vivo fermentation activity as the interior of the E. coli cell has a pH lower than 9.0.[21]

Nc1ccn(C2CSC(CO)O2)c(=O)n1 (racemic) [BCH-189, (±)-2,3-dideoxy-3′-thiacytidine]
anti-HIV activity [1]: anti-HIV activity

OC[C@@H](O)C(O)[C@H](O)CO [D-Arabitol]
Relative reaction rates, Recombinant MDH [2]: 33% | Relative reaction rates, Native MDH [3]: 37% | conversion of D-arabitol to D-lyxose [4]: 24%

OC[C@@H](O)[C@@H](O)[C@H](O)[C@H](O)CO [D-Mannitol]
Relative reaction rates, Recombinant MDH [2]: 100% | Relative reaction rates, Native MDH [3]: 100% | conversion of D-mannitol to D-mannose ([4]; 40 g/L polyol, 25° C., after 6 days): 12% | conversion of polyol to sugar detected by HPLC [5]: none was detected

OC[C@@H](O)[C@@H](O)[C@H](O)[C@@H](O)CO [D-Sorbitol]
Relative reaction rates, Recombinant MDH [2]: 5% | Relative reaction rates, Native MDH [3]: 22% | final conversion of D-sorbitol to L-gulose ([4]; 40 g/L polyol, 25° C., ceased after 7 days): 12% | conversion of polyol to sugar detected by HPLC [5]: none was detected

OC[C@@H](O)[C@@H](O)CO [Erythritol]
Relative reaction rates, Recombinant MDH [2]: 4% | Relative reaction rates, Native MDH [3]: 16%

C[C@H](O)[C@@H](O)[C@@H](O)[C@H](O)CO [L-fucitol]
relative reaction rate, % the rate of D-mannitol [6]: 10.5%

O=S(=O)([O-])[O-].[Ni+2] [NiSO4]
inhibition of MDH activity compared to MDH without NiSO4 ([7]; 0.1 mM NiSO4): approximately 50%

OC[C@@H](O)[C@@H](O)[C@@H](O)CO [Ribitol]
Relative reaction rates, Recombinant MDH [2]: 50% | Relative reaction rates, Native MDH [3]: 36%

Nc1ccn([C@@H]2CS[C@H](CO)O2)c(=O)n1 [Strain L-3TC]
potency compared with the D-form of BCH-189 [1]: more potent

OC[C@@H](O)[C@H](O)[C@@H](O)CO [Xylitol]
Relative reaction rates, Recombinant MDH [2]: 1% | Relative reaction rates, Native MDH [3]: 0%

[Cl-].[Cl-].[Zn+2] [ZnCl2]
ZnCl2 concentration of best conversion [8]: 0.5 mM

O=S(=O)([O-])[O-].[Zn+2] [Zn^2+]
concentrations showing inhibition of MDH activity ([7]; D-mannitol, NAD, pH 9.0): above 1 μM | increase of MDH activity compared to no added zinc ([7]; addition of 1 μM Zn2+, D-mannitol, NAD, pH 9.0): 50%

OC[C@@H](O)[C@H](O)[C@H](O)[C@@H](O)CO [galactitol]
conversion of galactitol to L-galactose ([4]; 40 g/L polyol, 25° C., 14 days): 40% | conversion of polyol to sugar detected by HPLC [5]: none was detected

B1: MDH: NAD-dependent mannitol-1-dehydrogenase from Apium graveolens, SEQ ID NO:2, wild type, expressed in E. coli (protein)
chain: MAKSSEIEHPVKAFGWAARDTTGLLSPFKFSRRATGEKDVRLKVLFSGVCHSDHHMIHNNWGFTTYPIVPGHEIVGVVTEVGSKVEKVKVGDNVGIGCLVGSCRSCESCCDNRESHCENIIDTYGSIYFDGTMTHGGYSDTMVADEHFILRWPKNLPLDSGAPLLCAGITTYSPLKYYGLDKPGTKIGVVGLGGLGHVAVKMAKAFGAQVTVIDISESKRKEALEKLGADSFLLNSDQEQMKGARSSLDGIIDTVPVNHPLAPLFDLLKPNGKLVMVGAPEKPFELPVFSLLKGRKLLGGTINGGIKETQEMLDFAAKHNITADVEVIPMDYVNTAMERLVKSDVRYRFVIDIANTMRTEESLGA
loss of MDH activity on incubation of lysates [9]: Most MDH activity was lost | ribitol converted to L-ribose ([10]; 2% ribitol (w/v), shake-flask, 48 hrs): approximately 25% | ribitol converted ([10]; 48 hrs): 30% | productivity of L-ribose ([10]; in 48 hrs, unoptimized E. coli strain): approximately 35 g·L^−1 | Ratio T1/2 [11]: 1.0 | residual activity at pH 7.0 [12]: 10%
